Measurements: ChEMBL document CHEMBL5346877, “A-ring-fused pyrazoles of dihydrotestosterone targeting prostate cancer cells via the downregulation of the androgen receptor” (Eur J Med Chem, 2023)
Active and inactive are the calls of the source. The calls are words filed in the database; no cut-off is given here.

What was measured:
[1] = system: LAPC4; assay: Antiproliferative activity against human LAPC4 cells assessed as decrease in […] at 2 to 10 uM incubated for 24 to 72 hrs by resazurin dye based assay; type: functional, cell-based; conditions: dose 2-10 µM, time 24-72 hrs
[2] = biological target: T1, Androgen receptor (Homo sapiens) (UniProt P10275); assay: Antagonist activity at AR in human 22Rv1 cells incubated for 24 hrs in presence of R1881 by Western blotting analysis; type: cell-based; conditions: filed as antagonist
T1 sequence (whole entry): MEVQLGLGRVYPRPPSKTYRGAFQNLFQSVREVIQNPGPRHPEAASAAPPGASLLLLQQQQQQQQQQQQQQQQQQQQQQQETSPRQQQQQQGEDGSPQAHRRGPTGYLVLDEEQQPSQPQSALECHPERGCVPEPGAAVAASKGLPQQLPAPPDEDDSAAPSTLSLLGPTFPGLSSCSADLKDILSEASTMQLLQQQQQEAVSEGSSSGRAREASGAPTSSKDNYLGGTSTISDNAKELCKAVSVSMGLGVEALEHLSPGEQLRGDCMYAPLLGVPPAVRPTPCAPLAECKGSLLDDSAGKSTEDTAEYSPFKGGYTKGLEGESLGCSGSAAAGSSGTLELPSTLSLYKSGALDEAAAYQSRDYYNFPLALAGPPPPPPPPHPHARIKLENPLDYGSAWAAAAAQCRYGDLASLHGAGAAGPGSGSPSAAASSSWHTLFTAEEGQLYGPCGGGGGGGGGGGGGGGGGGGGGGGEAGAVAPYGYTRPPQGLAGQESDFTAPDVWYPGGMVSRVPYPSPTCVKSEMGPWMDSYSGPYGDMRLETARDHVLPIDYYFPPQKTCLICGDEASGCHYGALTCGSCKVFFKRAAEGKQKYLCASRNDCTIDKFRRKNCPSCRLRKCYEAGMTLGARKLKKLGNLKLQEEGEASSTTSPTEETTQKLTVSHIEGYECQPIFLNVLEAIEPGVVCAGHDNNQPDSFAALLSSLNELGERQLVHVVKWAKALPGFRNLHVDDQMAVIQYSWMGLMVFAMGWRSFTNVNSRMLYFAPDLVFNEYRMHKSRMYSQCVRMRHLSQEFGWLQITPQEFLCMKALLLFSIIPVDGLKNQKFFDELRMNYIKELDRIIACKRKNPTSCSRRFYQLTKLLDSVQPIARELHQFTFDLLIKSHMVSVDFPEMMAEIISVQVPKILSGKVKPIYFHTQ

[3] = biological target: T1, Androgen receptor (Homo sapiens); assay: Antagonist activity at AR in human LNCaP-abl cells assessed as reduction in PSA expression at 10 uM incubated for 24 hrs in presence of R1881 by Western blotting analysis; type: cell-based; conditions: filed as antagonist
[4] = biological target: T1, Androgen receptor (Homo sapiens); assay: Antagonist activity at AR in human LNCaP cells incubated for 24 hrs in presence of R1881 by Western blotting analysis; type: cell-based; conditions: filed as antagonist
[5] = biological target: T2, Androgen receptor (Homo sapiens, UniProt P10275); assay: Antagonist activity at AR transcription in human 22Rv1 cells incubated for 24 hrs in presence of R1881; type: cell-based
T2 sequence (P10275 whole entry): T1 sequence (whole entry)

[6] = system: LAPC4; assay: Antiproliferative activity against human LAPC4 cells assessed as viable cells at 2 to 10 uM incubated for 24 to 48 hrs by resazurin dye based assay; type: functional; conditions: dose 2-10 µM, time 24-48 hrs
[7] = biological target: T1, Androgen receptor (Homo sapiens); assay: Antagonist activity at AR in human LNCaP-abl cells assessed as reduction in phosphorylation at S81 at 10 uM incubated for 24 hrs in presence of R1881 by Western blotting analysis; type: cell-based; conditions: filed as antagonist
[8] = system: LAPC4; assay: Induction of apoptosis in human LAPC4 cells assessed as PARP-1 expression at 2 to 10 uM incubated for 48 to 72 hrs; type: functional, cell-based; conditions: dose 2-10 µM, time 48-72 hrs
[9] = system: DU-145; assay: Cytotoxicity against human DU-145 cells assessed as cell viability at 20 uM incubated for 72 hrs by resazurin dye based microplate reader assay; type: functional; conditions: read-out: Activity
[10] = biological target: T1, Androgen receptor (Homo sapiens); assay: Antagonist activity at AR in human LNCaP cells assessed as reduction in Nkx3.1 expression at 2 to 10 uM incubated for 72 hrs by Western blotting analysis; type: cell-based; parameters: scale not given: the % may be the effect or the level left; conditions: filed as antagonist, dose 2-10 µM
[11] = system: LAPC4; assay: Cytotoxicity against human LAPC4 cells assessed as cell viability at 20 uM incubated for 72 hrs by resazurin dye based microplate reader assay; type: functional; conditions: read-out: Activity
[12] = biological target: T1, Androgen receptor (Homo sapiens); assay: Antagonist activity at AR in human LNCaP cells assessed as reduction in PSA expression at 2 to 10 uM incubated for 72 hrs by Western blotting analysis; type: cell-based; parameters: scale not given: the % may be the effect or the level left; conditions: filed as antagonist, dose 2-10 µM
[13] = system: LAPC4; assay: Inhibition of colony formation in human LAPC4 cells at 5 uM incubated for 10 days by crystal violet staining based assay; type: functional, cell-based; conditions: time 10.0 day
[14] = system: LAPC4; assay: Induction of apoptosis in human LAPC4 cells assessed as cleaved caspase-3 expression at 2 to 10 uM incubated for 48 to 72 hrs; type: functional, cell-based; conditions: dose 2-10 µM, time 48-72 hrs
[15] = biological target: T1, Androgen receptor (Homo sapiens); assay: Antagonist activity at AR transcription in human 22Rv1 cells assessed as reduction in PSA mRNA expression at 10 uM incubated for 24 hrs in presence of R1881 by qPCR analysis; type: cell-based; conditions: filed as antagonist
[16] = system: CWR22R; assay: Cytotoxicity against human 22Rv1 cells assessed as cell viability at 20 uM incubated for 72 hrs by resazurin dye based microplate reader assay; type: functional; conditions: read-out: Activity
[17] = system: CWR22R; assay: Induction of cell cycle arrest in human 22Rv1 cells assessed as reduction S phase cells incubated for 48 hrs; type: functional, cell-based
[18] = biological target: T1, Androgen receptor (Homo sapiens); assay: Antagonist activity at AR in human LAPC4 cells incubated for 24 hrs in presence of R1881 by Western blotting analysis; type: cell-based; conditions: filed as antagonist, dose 1.25-10 µM
[19] = system: LAPC4; assay: Induction of apoptosis in human LAPC4 cells assessed as cleaved caspase-7 expression at 2 to 10 uM incubated for 48 to 72 hrs; type: functional, cell-based; conditions: dose 2-10 µM, time 48-72 hrs
[20] = system: LAPC4; assay: Inhibition of colony formation in human LAPC4 cells at 10 uM incubated for 10 days by crystal violet staining based assay; type: functional; conditions: LAPC4, 240 h, time 10 day
[21] = biological target: T1, Androgen receptor (Homo sapiens); assay: Binding affinity to His6 tagged recombinant human AR LBD expresssed in Escherichia coli BL21(DE3) cells by MST assay; conditions: filed as antagonist
[22] = system: DU-145; assay: Induction of cell cycle arrest in human DU-145 cells assessed as reduction S phase cells incubated for 48 hrs; type: functional, cell-based
[23] = biological target: T1, Androgen receptor (Homo sapiens); assay: Antagonist activity at AR in human LAPC4 cells assessed as reduction in Nkx3.1 expression at 10 uM incubated for 24 hrs in presence of R1881 by Western blotting analysis; type: cell-based; conditions: filed as antagonist
[24] = biological target: T1, Androgen receptor (Homo sapiens); assay: Antagonist activity at AR transcription in human LAPC4 cells assessed as reduction in AR mRNA expression at 10 uM incubated for 24 hrs in presence of R1881 by qPCR analysis; type: cell-based; conditions: filed as antagonist
[25] = system: LAPC4; assay: Reversal of AR degradation in human LAPC4 cells at 10 to 20 uM preincubated for 1 hr followed by bav-degalutamide addition and measured after 4 hrs; type: functional, cell-based; conditions: dose 10-20 µM, time 5.0 hrs
[26] = system: LAPC4; assay: Antiproliferative activity against human LAPC4 cells; type: functional; conditions: time 72 hrs
[27] = system: LAPC4; assay: Induction of cell cycle arrest in human LAPC4 cells assessed as reduction S phase cells incubated for 48 hrs; type: functional, cell-based
[28] = biological target: T1, Androgen receptor (Homo sapiens); assay: Antagonist activity at AR transcription in human LAPC4 cells assessed as reduction in PSA mRNA expression at 10 uM incubated for 24 hrs in presence of R1881 by qPCR analysis; type: cell-based; conditions: filed as antagonist
[29] = biological target: T1, Androgen receptor (Homo sapiens); assay: Antagonist activity at AR in human LAPC4 cells assessed as reduction in PSA expression at 10 uM incubated for 24 hrs in presence of R1881 by Western blotting analysis; type: cell-based; conditions: filed as antagonist

SMILES: Cc1c2c(nn1-c1ccc(F)cc1)C[C@@H]1CC[C@@H]3[C@H](CC[C@]4(C)[C@@H](O)CC[C@@H]34)[C@@]1(C)C2
- Activity [1]: Active
- Activity [2]: Dose-Dependent Effect
- Activity [3]: Active
- Activity [4]: Dose-Dependent Effect
- IC50 [5]: 1.18 µM
- Activity [6]: >80%
- Activity [7]: Active
- Activity [8]: Active
- viability at 20 µM [9]: ≥ 100%
- Activity [10]: 100%
- viability at 20 µM [11]: 38%
- Activity [12]: 100%
- inhibition [13]: Active
- Activity [14]: Active
- Activity [15]: Active
- viability at 20 µM [16]: 26%
- Activity [17]: Active
- Activity [18]: Dose-Dependent Effect
- Activity [19]: Active
- inhibition at 10 µM [20]: 3%
- Activity [21]: Active
- Activity [22]: inactive
- Activity [23]: Active
- Activity [24]: Active
- Activity [25]: Active
- GI50 [26]: 7.9 µM
- Activity [27]: Active
- Activity [28]: Active
- Activity [29]: Active
